Assay results as given in paper PMC7911295, “Metabolism of Zearalenone in the Rumen of Dairy Cows with and without Application of a Zearalenone-Degrading Enzyme” (Toxins, 2021).
Read-outs that look alike come from different tables or passages of the source.

Tests used:
[1] = Feeding trial in rumen-fistulated dairy cows: ZEN and ZEN metabolites in rumen fluid from reticulum, dorsal mat layer and ventral sac; type: in vivo, Holstein Friesian cows; details: for Traces still detected at (time after administration of ZEN-contaminated concentrate): time point 0 h of the ZEN+ZenA treatment; for Tmax: female, Holstein Friesian, bovine, in vivo, po, 5 mg, read-out: Time of peak concentration post-administration (converted); for Percentage of concentration relative to the sum of ZEN and ZEN metabolite concentrations: reticulorumen; for Time to elimination: ventral sac and reticulum
From the text: (§1) Ruminal metabolism of ZEN with and without supplementation of ZenA was investigated in four rumen-fistulated Holstein Friesian cows (sex: female; age at start: 5.9 ± 1.0 years; body weight at start: 863 ± 65 kg; physiological stage: non-lactating; general health: good, non-gestating; identification procedure: ear tag 4-digit code). The cows were part of the dairy herd of VetFarm (Teaching and Research Farm) of the University of Veterinary Medicine Vienna in Kremesberg, Austria. All procedures related to these experiments were performed according to Austrian law and following the European Guidelines for the Care and Use of Animals for Research Purpose. The animal experiment was approved by ethics and animal welfare commission of the University of Veterinary Medicine, Vienna and the Austrian Federal Ministry of Education, Science and Research (68.205/0156-WF/V/3b/2017, 30.08.2017).
(§2) In our trial setup, each animal was considered an experimental unit (n = 4). Each animal received the same treatment and served as its own control. First, each animal received ZEN-contaminated concentrate feed. Following a 48-h washout period, each animal received ZEN-contaminated concentrate feed supplemented with ZenA. In brief, for acclimatization, on the day prior to the start of the feeding trial, each animal was manually fed 4 × 500 g of control concentrate (Table 4 and Table 5). Thereafter, animals were manually fed (i) 1 × 500 g concentrate contaminated with ZEN and 3 × 500 g control concentrate on experimental day 1 (ZEN treatment), (ii) 4 × 500 g control concentrate on day 2 (ZEN washout), (iii) 1 × 500 g ZEN-contaminated concentrate supplemented with ZenA and 3 × 500 g control concentrate on day 3 (ZEN+ZenA treatment), and (iv) 4 × 500 g control concentrate on day 4 (ZEN+ZenA washout; Table 6). Animals were treated and assessed in the same random order at each experimental time point.
For production of ZEN-contaminated concentrate feed, lyophilizate of ZEN with maltodextrin as a carrier was prepared. To this end, in three parallel preparations, 50 mg ZEN (Fermentek, Jerusalem, Israel) was dissolved in 1 L RO water (pH 12; adjusted with NaOH) using a magnetic stirrer set to 400 rpm and 37 °C for 20 min. Subsequently, 100 g maltodextrin DE19 (Agrana, Vienna, Austria) was added and dissolved by stirring (400 rpm) at room temperature for 10 min. The solution was lyophilized. Lyophilizate was mixed into concentrate feed at an inclusion rate of 2%. The final concentration of ZEN in feed was aimed to be 10 mg/kg and was verified using HPLC-MS/MS analysis as described below. For production of ZEN-contaminated, ZenA-supplemented concentrate, a zearalenone hydrolase ZenA preparation (ZENzyme®; EC 3.1.1.-; BIOMIN Holding GmbH, Getzersdorf, Austria) was mixed into ZEN-contaminated concentrate to achieve an activity of 128 U/kg feed. Same as in the in vitro trial, 1 U of ZenA was defined as the enzyme activity that hydrolyzes 1 μmol ZEN per minute from 15.71 µM ZEN in Teorell Stenhagen buffer adjusted to pH 7.5 containing 0.1 mg/mL bovine serum albumin at 37 °C.
On days 1 and 3 of the trial (ZEN and ZEN+ZenA treatment, respectively), ruminal digesta samples were taken from reticulum, ventral sac and dorsal mat layer (Figure 3) immediately before concentrate feeding (0 h), as well as 15 min, 1 h, 2 h, 4 h, 7 h and 10 h after concentrate feeding (Table 6). On days 2 and 4 of the trial (washout days), ruminal digesta samples were taken immediately before first concentrate feeding (0 h), as well as 10 h after first concentrate feeding (Table 6). Ruminal digesta samples (10 mL) were taken via a rumen fistula from reticulum and ventral sac (10 cm above the bottom of the rumen) using a pump as described previously. Samples were taken from the dorsal mat layer 20 cm below the gas phase and rumen fluid was obtained by manually squeezing the samples as described previously. Samples were mixed 1:2 with acetonitrile by vortexing. […]

[2] = Feeding trial in rumen-fistulated dairy cows: ZEN and ZEN metabolites in feces; type: in vivo, Holstein Friesian cows; details: feces
From the text: as §1, §2
On days 1 and 3 of the experiment, feces samples were taken from the rectum immediately before concentrate feeding (0 h), as well as 10 h after concentrate feeding (Table 6) and stored at −20 °C. Aliquots (500 mg) of thoroughly homogenized feces samples were extracted for HPLC-MS/MS analysis according to the method described by Binder and coworkers.
HPLC-MS/MS analysis of ZEN, α-ZEL, β-ZEL, HZEN and DHZEN in rumen fluid and feces was performed as described for the in vitro rumen fermentation experiment (see section “In Vitro Rumen Fermentation Experiment”, subsection “Analysis of ZEN and its Metabolites”), with the following modifications. Chromatographic separation was performed with a flow rate of 0.6 mL/min, a duration of 4 min and an injection volume was 1 µL. The gradient started at 30% B which was held for 0.3 min. Subsequently, the proportion of B was increased to 80% from 0.3 to 2 min, and increased to 100% from 2 to 2.1 min. […] LODs for ZEN, α-ZEL, β-ZEL, HZEN and DHZEN in rumen fluid were 2.83 nmol/L (0.9 µg/L), 2.81 nmol/L (0.9 µg/L), 2.81 nmol/L (0.9 µg/L), 2.68 nmol/L (0.9 µg/L) and 10.27 nmol/L (3 µg/L), respectively. LOQs for ZEN, α-ZEL, β-ZEL, HZEN and DHZEN in rumen fluid were 9.43 nmol/L (3 µg/L), 9.37 nmol/L (3 µg/L), 9.37 nmol/L (3 µg/L), 8.93 nmol/L (3 µg/L) and 30.81 nmol/L (9 µg/L), respectively. LODs for ZEN, α-ZEL, β-ZEL, HZEN and DHZEN in feces were 0.03 nmol/g (8.4 ng/g), 0.03 nmol/g (8.4 ng/g), 0.03 nmol/g (8.4 ng/g), 0.03 nmol/g (8.4 ng/g) and 0.10 nmol/g (28 ng/g), respectively. LOQs for ZEN, α-ZEL, β-ZEL, HZEN and DHZEN in feces were 0.09 nmol/g (28 ng/g), 0.09 nmol/g (28 ng/g), 0.09 nmol/g (28 ng/g), 0.08 nmol/g (28 ng/g) and 0.29 nmol/g (84 ng/g), respectively.

estrogen receptors = test system: estrogen receptors; set-up: method as in doi:10.2903/j.efsa.2016.4425; details: cited from earlier work
[3] = dorsal mat layer, ZEN treatment
[4] = ZEN treatment, 15 min after feeding, from median of 3 locations
[5] = reticulum and ventral sac, ZEN treatment
[6] = ZEN+ZenA treatment, 0 h (48 h after ZEN treatment)

C[C@H]1CCCC(=O)CCC/C=C/c2cc(O)cc(O)c2C(=O)O1 [ZEN, zearalenone]
Low concentrations still detected at (time after concentrate feeding) [1, 3]: 34 h
Traces still detected at (time after administration of ZEN-contaminated concentrate) ([1]; dorsal mat layer): 48 h
Tmax [1, 3]: 1 h
Tmax ([1]; reticulum, ZEN treatment (5 mg ZEN oral)): 0.25 h
Tmax ([1]; ventral sac, ZEN treatment): 1 h
Percentage of concentration relative to the sum of ZEN and ZEN metabolite concentrations [1, 4]: 100.0%
Percentage of concentration relative to the sum of ZEN and ZEN metabolite concentrations ([1]; ZEN treatment, 1 h): 84.8%
Percentage of concentration relative to the sum of ZEN and ZEN metabolite concentrations ([1]; ZEN treatment, 4 h): 84.1%
Percentage of concentration relative to the sum of ZEN and ZEN metabolite concentrations ([1]; ZEN treatment, 7 h): 78.7%
Percentage of concentration relative to the sum of ZEN and ZEN metabolite concentrations ([1]; ZEN treatment, 10 h): 74.4%
Percentage of concentration relative to the sum of ZEN and ZEN metabolite concentrations ([1]; ZEN treatment, 24 h): 50.2%
Percentage of concentration relative to the sum of ZEN and ZEN metabolite concentrations ([1]; ZEN+ZenA treatment, 15 min): 5.9%
Percentage of concentration relative to the sum of ZEN and ZEN metabolite concentrations ([1]; ZEN+ZenA treatment, 1 h): 0.0 (traces) %
Percentage of concentration relative to the sum of ZEN and ZEN metabolite concentrations ([1]; ZEN+ZenA treatment, 4 h): 0.0 (traces) %
Percentage of concentration relative to the sum of ZEN and ZEN metabolite concentrations ([1]; ZEN+ZenA treatment, 7 h): 0.0 (traces) %
Percentage of concentration relative to the sum of ZEN and ZEN metabolite concentrations ([1]; ZEN+ZenA treatment, 10 h): 0.0 (traces) %
Detected up until (time after concentrate feeding) [1, 5]: 24 h
Time to elimination ([1]; ZEN treatment): ≤ 34 h
Percentage of concentration relative to the sum of ZEN and ZEN metabolite concentrations ([2]; ZEN treatment, 10 h): 11.0%
Percentage of concentration relative to the sum of ZEN and ZEN metabolite concentrations [2, 6]: 15.6%
Percentage of concentration relative to the sum of ZEN and ZEN metabolite concentrations ([2]; ZEN+ZenA treatment, 10 h): 0.0 (traces) %

C[C@H]1CCC[C@H](O)CCC/C=C/c2cc(O)cc(O)c2C(=O)O1 [α-ZEL, α-zearalenol]
First detected (time after concentrate feeding) [1, 3]: 1 h
Low concentrations still detected at (time after concentrate feeding) [1, 3]: 34 h
Traces still detected at (time after administration of ZEN-contaminated concentrate) ([1]; dorsal mat layer): 48 h
Percentage of concentration relative to the sum of ZEN and ZEN metabolite concentrations [1, 4]: 0.0 (traces) %
Percentage of concentration relative to the sum of ZEN and ZEN metabolite concentrations ([1]; ZEN treatment, 1 h): 7.6%
Percentage of concentration relative to the sum of ZEN and ZEN metabolite concentrations ([1]; ZEN treatment, 4 h): 15.9%
Percentage of concentration relative to the sum of ZEN and ZEN metabolite concentrations ([1]; ZEN treatment, 7 h): 21.3%
Percentage of concentration relative to the sum of ZEN and ZEN metabolite concentrations ([1]; ZEN treatment, 10 h): 25.6%
Percentage of concentration relative to the sum of ZEN and ZEN metabolite concentrations ([1]; ZEN treatment, 24 h): 49.8%
Percentage of concentration relative to the sum of ZEN and ZEN metabolite concentrations ([1]; ZEN+ZenA treatment, 15 min): 0.0 (traces) %
Percentage of concentration relative to the sum of ZEN and ZEN metabolite concentrations ([1]; ZEN+ZenA treatment, 1 h): 0.0%
Percentage of concentration relative to the sum of ZEN and ZEN metabolite concentrations ([1]; ZEN+ZenA treatment, 4 h): 0.0%
Percentage of concentration relative to the sum of ZEN and ZEN metabolite concentrations ([1]; ZEN+ZenA treatment, 7 h): 0.0%
Percentage of concentration relative to the sum of ZEN and ZEN metabolite concentrations ([1]; ZEN+ZenA treatment, 10 h): 0.0 (traces) %
Detected up until (time after concentrate feeding) [1, 5]: 24 h
First detected (time after concentrate feeding) [1, 5]: 0.25 h
Time to elimination ([1]; ZEN treatment): ≤ 34 h
Detection in rumen fluid ([1]; ventral sac, ZEN+ZenA treatment): not detected
Percentage of concentration relative to the sum of ZEN and ZEN metabolite concentrations ([2]; ZEN treatment, 10 h): 10.9%
Percentage of concentration relative to the sum of ZEN and ZEN metabolite concentrations [2, 6]: 15.5%
Percentage of concentration relative to the sum of ZEN and ZEN metabolite concentrations ([2]; ZEN+ZenA treatment, 10 h): 9.0%
Estrogenic potency relative to ZEN (estrogen receptors): 60 times

C[C@H]1CCC[C@@H](O)CCC/C=C/c2cc(O)cc(O)c2C(=O)O1 [β-ZEL, β-zearalenol]
Detection in rumen fluid ([1]; any reticulorumen location, ZEN+ZenA treatment): not detected
Period of detection at low concentrations [1, 3]: 1 to 7 h
Percentage of concentration relative to the sum of ZEN and ZEN metabolite concentrations [1, 4]: 0.0 (traces) %
Percentage of concentration relative to the sum of ZEN and ZEN metabolite concentrations ([1]; ZEN treatment, 1 h): 7.6%
Percentage of concentration relative to the sum of ZEN and ZEN metabolite concentrations ([1]; ZEN treatment, 4 h): 0.0 (traces) %
Percentage of concentration relative to the sum of ZEN and ZEN metabolite concentrations ([1]; ZEN treatment, 7 h): 0.0 (traces) %
Percentage of concentration relative to the sum of ZEN and ZEN metabolite concentrations ([1]; ZEN treatment, 10 h): 0.0%
Percentage of concentration relative to the sum of ZEN and ZEN metabolite concentrations ([1]; ZEN treatment, 24 h): 0.0%
Percentage of concentration relative to the sum of ZEN and ZEN metabolite concentrations ([1]; ZEN+ZenA treatment, 15 min): 0.0%
Percentage of concentration relative to the sum of ZEN and ZEN metabolite concentrations ([1]; ZEN+ZenA treatment, 1 h): 0.0%
Percentage of concentration relative to the sum of ZEN and ZEN metabolite concentrations ([1]; ZEN+ZenA treatment, 4 h): 0.0%
Percentage of concentration relative to the sum of ZEN and ZEN metabolite concentrations ([1]; ZEN+ZenA treatment, 7 h): 0.0%
Percentage of concentration relative to the sum of ZEN and ZEN metabolite concentrations ([1]; ZEN+ZenA treatment, 10 h): 0.0%
Time to elimination ([1]; ZEN treatment): ≤ 34 h
Time of detection at low concentrations ([1]; ventral sac, ZEN treatment): 1 h
Percentage of concentration relative to the sum of ZEN and ZEN metabolite concentrations ([2]; ZEN treatment, 10 h): 78.1%
Percentage of concentration relative to the sum of ZEN and ZEN metabolite concentrations [2, 6]: 69.0%
Percentage of concentration relative to the sum of ZEN and ZEN metabolite concentrations ([2]; ZEN+ZenA treatment, 10 h): 59.1%
Estrogenic potency relative to ZEN (estrogen receptors): 0.2 times
